Measurements reported in the METLIN SMRT retention time set (Domingo-Almenara et al. 2019).

Assay: gradient 5% acetonitrile 3 min, to 50% in 2 min, to 85% in 15 min, held 3 min, 100 µL/min
Settings: column: Zorbax Extend-C18 2.1 x 50 mm; eluents: water / acetonitrile, 0.1% formic acid
In short: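 Using water and acetonitrile that each contained 0.1% formic acid, mixtures of ~100 pure standards were separated at 100 μL/min on a Zorbax Extend-C18 column (2.1 × 50 mm, 1.8 μm). The HPLC fed a quadrupole time-of-flight mass spectrometer working in positive and negative ionization mode, with dead and dwell volumes of 40 μL and 900 μL. Data were acquired over 3 months. Retention time was read from computationally picked adduct peaks after manual inspection of each.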

| SMILES | RP-LC retention time |
| --- | --- |
| O=C(Cn1ccnc1-c1ccnc(N2CCOCC2)c1)N1CCN(c2ccccc2)CC1 | 639 s |
| COc1ccc(-c2csc(NC(=O)c3cccc([N+](=O)[O-])c3C(=O)O)n2)cc1 | 938 s |
| Cc1nc2cc(-c3noc(-c4ccc(C#N)cc4)n3)ccc2n(C)c1=O | 965 s |
| Cc1nnc(N2CCCC(C(=O)NCCCN3CCCC3)C2)c2nn(-c3ccccc3)c(C)c12 (stereo not given) | 558 s |
| O=C(C1CCCN(c2nccnc2Sc2ccccc2)C1)N1CCN(c2cccc(Cl)c2)CC1 (stereo not given) | 1260 s |
| Cn1ncc2c(Nc3cccc([N+](=O)[O-])c3)ncnc21 | 683 s |
| Cc1cc2nn(CC(=O)Nc3cc(F)cc(F)c3)c(=O)n2c(Nc2ccccc2)n1 | 1040 s |
| CCOc1ccc(NC(=O)N2CCN(CCn3c(C(F)(F)F)nc4cccnc43)CC2)cc1 | 649 s |
| O=C(Nc1cccc(C(F)(F)F)c1)C1CCN(C(=O)C2Sc3ccccc3NC2=O)CC1 (stereo not given) | 862 s |
| CCc1cc(=O)n(CC(=O)Nc2cc(F)ccc2C)c(N2CCOCC2)n1 | 776 s |
| CCC(C)NC(=O)c1cc(-c2ccc(F)cc2)cn1C (stereo not given) | 981 s |
| COc1ccc(-c2nnc(-c3ccc(C)c(S(=O)(=O)Nc4cccnc4)c3)o2)cc1OC | 722 s |
| CC1Cc2ccccc2N1C(=O)c1ccc(=O)n(CCC(=O)N2CCCCCC2)n1 (stereo not given) | 814 s |
| O=C(NCc1ccccc1Cl)c1nnc(-c2ccc(S(=O)(=O)N3CCCC3)cc2)o1 | 934 s |
| C=CC(=O)N1CCCC(n2nc(-c3ccc(Oc4ccccc4)cc3)c3c(N)ncnc32)C1 (stereo not given) | 850 s |
| CN1CCCN(C(c2ccccc2)c2ccc(Cl)cc2)CC1 (stereo not given) | 796 s |
| O=C(Nc1ccc2c(N3CCCCC3)ncnc2c1)c1ccc(Br)o1 | 685 s |
| COc1cc(OC)cc(C(=O)N2CCN=C2N2CCCCC2)c1 | 646 s |
| COc1ccc(CCC(=O)Nc2nc(-c3ccc(Cl)cc3)cs2)cc1 | 1120 s |
| COc1ccc(-c2c(C)noc2NC(C)=O)cc1S(=O)(=O)NCc1ccc(C)cc1 | 784 s |
| O=C(CN1CCN(Cc2ccccc2)C1=O)N1CCN(c2ccccc2)CC1 | 788 s |
| CCN1C(=O)C(CC(=O)NCc2ccncc2)Sc2ncccc21 (stereo not given) | 558 s |

| SMILES | RP-LC retention time |
| --- | --- |
| CCN1CCN(c2cc(C)c3cc(NC(=O)/C=C/c4ccc(OC(C)C)cc4)ccc3n2)CC1 | 646 s |
| CC(=O)N1c2ccc(S(=O)(=O)N3CCCCC3)cc2CC1C(=O)NCCN(C)C (stereo not given) | 601 s |
| Cc1cccc(CN2CCn3c(nnc3[C@@H]3C[C@@H](O)CN3Cc3cccnc3)C2)c1 | 586 s |
| COc1ccc(-c2nn3c(-c4ccc(N(C)C)cc4)nnc3s2)cc1 | 1120 s |
| Brc1ccc(-c2nc(-c3ccn4cnnc4c3)no2)cc1 | 929 s |
| O=S(=O)(Nc1ccc(F)cc1)c1cccc(-c2nc(-c3ccccc3)no2)c1 | 1120 s |
| CC(C)Cc1ccc(S(=O)(=O)N(C)C2CCc3nn(CC4CC4)c(=O)n3CC2)cc1 (stereo not given) | 914 s |
| CCn1cc(-c2nc(CC(=O)Nc3cc(Cl)ccc3OC)cs2)c2cccnc21 | 1130 s |
| Cc1ccc(Cc2nc(CCNC(=O)C3CCN(S(=O)(=O)c4ccc(C)cc4)CC3)n[nH]2)cc1 | 769 s |
| Cc1oc(-c2[nH]ncc2C(=O)N2CCOCC2)cc1S(=O)(=O)N1CCOCC1 | 595 s |
| CCn1cc2c3c(cccc31)CN(C(=O)Nc1cccc(C)c1)CC2 | 1050 s |
| Cc1nc(-c2cccnc2)sc1C(=O)/C=C/c1ccc(Cl)cc1Cl | 1150 s |
| COc1ccc(-c2ncc3c(n2)CCN(C(=O)c2ccc(C)c(C)c2)C3)cc1 | 1030 s |
| Cn1c(=O)c2cc(C(=O)NCc3ccccc3Cl)sc2n(C)c1=O | 795 s |
| CC1CCN(S(=O)(=O)c2ccc3nc(N4CCN(C5CCCCC5)CC4)ccc3c2)CC1 | 776 s |
| N#Cc1cccc(CN2CCC3(CCC3O)CC2)c1 (stereo not given) | 565 s |
| CCC1CCCCN1C(=O)CSc1nc2c3cc(OC)ccc3n(C)c2c(=O)n1CC (stereo not given) | 1070 s |
| CCNC(=O)c1cc(C(C)C)[nH]n1 | 618 s |
| CC(NC(=O)c1sc2ncccc2c1-n1cccc1)c1ccc(F)cc1 (stereo not given) | 1070 s |
| c1nc2ccc(-c3nc(-c4ccc5c(c4)nnn5CCN4CCCCC4)no3)cc2[nH]1 | 570 s |
| O=C(c1ccc2c(c1)OCO2)N1C[C@H]2C[C@H](C1)[C@H]1CCCC(=O)N1C2 | 637 s |
| CN1C(=O)c2cccn2CC1C(=O)NC1CCCCCC1 (stereo not given) | 731 s |

| SMILES | RP-LC retention time |
| --- | --- |
| O=C(Cn1cnc2c(sc3nc(-c4ccccc4)ccc32)c1=O)NC1CCCC1 | 906 s |
| Cc1ccc(NC(=O)N2CCC(N3CCN(Cc4ccccn4)C(=O)C3=O)CC2)cc1 | 604 s |
| Cc1csc(-c2csc(S(=O)(=O)N3CCC(Cc4ccccc4)CC3)c2)n1 | 1270 s |
| O=C(Nc1cccc(F)c1)C1CC(=O)N(c2ccc3c(c2)CCN3C(=O)C2CCC2)C1 (stereo not given) | 839 s |
| Cc1ccc2c(c1)N(S(C)(=O)=O)CCC(C(=O)Nc1cccc(F)c1)O2 (stereo not given) | 973 s |
| Cn1ncc(N2CCC(C(=O)N3CCc4ccccc43)C2)cc1=O (stereo not given) | 714 s |
| CCOc1ccc(S(=O)(=O)N2CCC(C(=O)NCc3csc(-c4cccs4)n3)CC2)cc1 | 914 s |
| Cc1ccccc1-n1c(=O)c2sccc2n(Cc2nc(-c3ccc(F)c(Cl)c3)no2)c1=O | 1110 s |
| CCC(=O)N1CCN(c2nc3c(s2)CC(C(=O)NC(CC)CC)CC3)CC1 (stereo not given) | 546 s |
| COCCCNS(=O)(=O)c1cc(-c2[nH]ncc2C(=O)N2CCCC2)oc1C | 623 s |
| Cc1c(N2CCN(C(=O)c3cccc(F)c3)CC2)c(=O)n(C)c(=O)n1C | 698 s |
| CCOCCCNC(=O)CN1C(=O)CCn2nc(-c3cn(C)c4ccccc34)cc21 | 714 s |
| O=c1c(S(=O)(=O)N2CCCC2)cccn1Cc1cccc(Cl)c1 | 902 s |
| CC1CCN(c2cc(-n3cnc(C(=O)N4CCN(c5ccccc5)CC4)c3)ncn2)CC1 | 1040 s |
| CCCN1C(=O)COc2ccc(-c3noc(COc4ccc(Cl)cc4C)n3)cc21 | 1260 s |
| CCn1ncc(CN2CCC[C@H]2c2nc(-c3ccccc3)n[nH]2)c1C | 601 s |
| CCCn1cc(C(=O)NC2CCCC2)c2nn(-c3ccccc3)c(=O)c-2c1 | 738 s |
| CCc1ccc(C2=C(C)C(N3CCCN(C(=O)NC(C)C)CC3)=NS2(=O)=O)cc1 | 849 s |
| CCn1cnc(S(=O)(=O)N2CCC(C(=O)NCc3ccc(C)cc3)CC2)c1 | 797 s |
| CCOC(=O)C(C)NC(=O)N1CCN(Cc2nc3cccnc3n2-c2ccc(CC)cc2)CC1 (stereo not given) | 659 s |
| Cc1ccc(NC(=O)Cn2c(=O)n(-c3ccccc3)c(=O)c3c2cc(C)n3C)cc1 | 827 s |
